Experimental data as given in ChEMBL document CHEMBL1177692 (Bioorg Med Chem, 2010).

These molecules were tested against Carbonic anhydrase 9 (Homo sapiens, UniProt Q16790) (assay: Inhibition of human recombinant carbonic anhydrase 9 catalytic domain preincubated for 15 mins by CO2 hydration method).

| Ki | SMILES |
| --- | --- |
| 87 nM | COc1ccc2c(CC(=O)Nc3ccc(S(N)(=O)=O)cc3)cc(=O)oc2c1 |
| 14 nM | COc1ccc2c(CC(=O)Nc3cc(C(F)(F)F)c(S(N)(=O)=O)cc3S(N)(=O)=O)cc(=O)oc2c1 |
| 59 nM | COc1ccc2c(CC(=O)Nc3cccc(S(N)(=O)=O)c3)cc(=O)oc2c1 |
